The values that follow come from publication PMC11898701, “Evaluating Therapeutic Efficacy of the Vascular Disrupting Agent OXi8007 Against Kidney Cancer in Mice” (Cancers, 2025).

SMILES strings stand for the structures.

One test concerns Renca cells. The experiment in a line: Renca sulforhodamine B (SRB) assay, cell growth inhibition. Type of test: cell-based. To be noted: Mus musculus, Renca, 48 h. As for the experimental part: (§1) In two independent trials of Renca and Renca-luc cells were plated in triplicate at 8000 cells/well into 96-well plates and incubated for 24 h at 37 °C in a humidified incubator with 5% CO2 followed by a 48 h treatment period at ten-fold dilutions of the drug.
On the technique in general: The SRB assay estimates cell density from bound dye.

A further test deals with Renca-luc cells. The experiment in a line: Renca-luc sulforhodamine B (SRB) assay, cell growth inhibition. In kind it is cell-based. To be noted: Mus musculus, 48 h. How it is done:
as §1

The test system of test [1] is orthotopic XP258 human tumor xenografts. The test can be described thus: Long-term therapy of XP258 human tumor xenografts. Type of test: in vivo, mouse. The source says:
The animal procedures were approved by the UT Southwestern Medical Center Institutional Animal Care and Use Committee under APNs 2017-102152 and 2018-102344-CORE. Renca-luc orthotopic tumors were induced by inserting tumor tissue (~1 mm^3) harvested from a donor mouse into the right kidney of syngeneic BALB/c mice (age 8 weeks, male and female; Envigo, Indianapolis, IN, USA), as described previously. Orthotopic XP258 tumors (derived from a patient with pT3aN0M1 clear cell RCC) were obtained from the UT Southwestern Kidney Cancer SPORE [53, 54] and maintained by serial passage. Tumors were induced by inserting tumor tissues from a donor tumor into the left kidney capsule of female NOD/SCID mice (Envigo).
OXi8007, synthesized by the Pinney Laboratory using published procedures, was dissolved in saline, verified to be in the pH range 7.3 to 7.5, and dosed at 250 mg/kg (IP). Cabozantinib (in PEG400 and ultrapure H2O (Milli-Q)) was administered at 3 mg/kg by oral gavage. Anti-PD-1 (10 mg/kg, Bio X Cell, Lebanon, NH, USA) and anti-CTLA-4 (5 mg/kg, Bio X Cell, Lebanon, NH) solutions were administered (IP) on the day before OXi8007 […].
We evaluated the longitudinal effects of OXi8007 alone and in combination with drugs currently favored for treating kidney cancer. For Renca-luc tumor-bearing mice, BLI was performed at least once a week to estimate tumor size, and mice were weighed weekly to adjust the dose as needed. Two treatment cohorts examined syngeneic orthotopic Renca-luc tumors in male BALB/c mice. Treatment started when the tumors reached about 1 × 10^6 photons/s peak total flux on BLI. The first cohort examined OXi8007 with cabozantinib. Mice were divided into four groups. Mice were assigned to groups as soon as there were sufficient to add the same numbers of animals to each group. The specific assignment was defined using the random number function in Excel. As such, each group included both faster- and slower-growing tumors. […]

For test [2] the test system is unchanged. The test can be described thus: Acute response of XP258 tumors by MSOT. Type of test: in vivo, mouse. Conditions: XP258, four hours post-treatment, 250 mg/kg IP. How it is done:
For the multispectral optoacoustic tomography (MSOT), an iThera InVision 256-TF device with seven wavelengths (700, 730, 760, 780, 800, 820, and 875 nm) was used. Mice were shaved and depilated around the tumor region. The anesthetized mouse (1–2% isoflurane) was placed in the imaging chamber (34 °C) for 10 min to reach thermal equilibrium before imaging a single slice showing the largest cross-section of the tumor. An oxygen gas breathing challenge was performed to assess the dynamic changes in blood oxygenation. Images were generated using ViewMSOT version 4.2 with a back projection-based reconstruction algorithm followed by built-in fluence correction. Oxy- and deoxyhemoglobin were resolved using a linear regression approach.
Oxygen saturation (sO2) maps were analyzed using MATLAB 2022b (MathWorks Inc., Natick, MA, USA), and the images were visualized with Fiji. The percentage of hemoglobin saturation (sO2) was calculated as follows:[…]
Blank pixels represent areas lacking a detectable hemoglobin signal. The average sO2^MSOT was calculated pixelwise in each ROI for the air and oxygen breathing periods as sO2^MSOT (Air) and sO2^MSOT (O2), and the response to the oxygen gas challenge was as follows:∆sO2 = sO2 (O2) − sO2 (Air)(2)

Another test has as its system Ewing sarcoma. Details: method as in PMID 19136249. To be noted: 200 mg/kg twice weekly; cited from earlier work.

`COc1ccc2c(C(=O)c3cc(OC)c(OC)c(OC)c3)c(-c3ccc(OC)c(OP(=O)(O)O)c3)[nH]c2c1` [OXi8007]: the figures for the IC50 in the test on Renca cells and in the test with Renca-luc cells were 1450 ± 1 nM and 1560 ± 48 nM, respectively. For the same molecule, the “Tumor weights at sacrifice” value in test [1] (XP258, long-term therapy, monotherapy or combined) is “much smaller tumors”. In test [1] (XP258 in NOD/SCID mice, OXi8007 250 mg/kg IP twice weekly, cabozantinib 3 mg/kg oral daily), the Survival versus controls entry was “significantly enhanced survival”. Besides, in test [2], the “Tumor vascular oxygenation (MSOT)” value was “less well oxygenated and less responsive to the oxygen gas breathing challenge”. Besides, the Tumor growth delay result in the test on Ewing sarcoma is recorded as “no tumor growth delay”.

For orientation: IC50 means the concentration that gives 50% inhibition.
